Measured values taken from patent US7390822B2, “Substituted 4-phenyl-4-[1H-imidazol-2-yl]-piperidine derivatives for reducing ischaemic damage” (Janssen Pharmaceutica, N.V., priority 2001, dated 2008).
Where “and” joins values, the source holds several entries; their conditions need not be identical. Equal entries are not always repeated.

How the values were obtained:
rat heart = experiment: Rat-Langendorff model (isolated perfused heart, ischaemia/reperfusion); settings: individual rat hearts; for EDP: Degree of normalisation of EDP during reperfusion (amount above baseline EDP): 0 = recuperation to baseline EDP; for IC: Ischemic contracture: 4 μg/500 ml buffer, 20 min ischaemia; for Vfib: Number of ventricullar fibrillations during reperfusion: 40 min reperfusion
Experimental: A rat heart is rapidly dissected, attached by the aorta to a cannula and perfused with a physiological buffer (modified Krebs-Henseleit buffer: NaCl 118 mmol/l, KCl 4.7 mmol/l, MgSO4 1.2 mmol/l, KH2PO4 1.2 mmol/l, CaCl2 1.8 mmol/l, NaHCO3 23 mmol/l, glucose 11 mmol/l) without blood under 80 mmHg perfusion pressure. Oxygen is dissolved in the physiological buffer. The heart is paced atrially at 350 beats per minute. A balloon that can be optionally filled (adjustment preload) is inserted into the left ventricle. Diastolic pressure and the pressure developped are measured as well as the maximal rate of pressure development as a measure of contractility (inotropism) and the minimal rate of pressure decay as a measure of relaxation. Advantages of this model are: the heart is isolated and studied in controlled circumstances without interaction with other organs and the method is reasonably rapid and cheap. Disadvantages are: no blood perfusion, with only dissolved oxygen, therefore greater coronary flow rates with considerable vasodilatation of the coronary system; a closed system without metabolism and without interaction with other organs and a small animal model, relatively far away from clinical reality.
The study period of ischaemia is 20 minutes. The measurements after the study period of ischaemia (reperfusion phase) always last 40 minutes. Measurements before the study period of ischaemia last 30 minutes and are performed after stabilization. In the ischaemic preconditioning group the following is measured during these 30 minutes: 10 minutes baseline, 5 minutes ischaemia, 5 minutes reperfusion, 5 minutes ischaemia and 5 minutes reperfusion. In the group of the compounds according to the invention (4 μg/500 ml buffer solution) there is first 15 minutes baseline followed by 15 minutes treatment. Consequently, everything is time-matched.

[1] = tested on: sheep heart (left ventricle); experiment: Sheep model (normothermic myocardial ischaemia during extra corporal circulation); format: in vivo
Experimental: The model is a sheep anaesthetized with ketamine and isoflurane. The extra corporal circulation is connected by venous cannulation of both caval veins and arterial cannulation via the carotid. An additional cannula with flow meter in the right ventricle gives the flow rate over the coronary arteries. In addition to measurements of heart rate and arterial blood pressure, the left ventricle instantaneous pressure is measured as well as the left ventricle volumes via a conductance catheter. There is also a side-tubing on the arterial cannula of the artificial heart leading to the pulmonary artery. Via this route it is possible to modulate the left ventricle preload in a perfectly controlled manner in order to obtain load-independent measurements of the left ventricle contractility before and after the study period of ischaemia. Cardiac oxygen consumption was also measured as well as regional perfusion with the aid of coloured microspheres.
The study period of ischaemia was 30 minutes while the heart remained normothermic and was fully unloaded by the extra corporal circulation and venting of the ventricles. The control group was time-matched with the other groups. The ischaemic preconditioning group was subjected to 3 times 5 minutes of preconditioning ischaemia with 5 minute reperfusion intervals. In the three groups extra corporal circulation was started 30 minutes before the study period of ischaemia was imposed. The extra corporal circulation was stopped 40 minutes after the end of the study period of ischaemia. […] Only these four will be processed here. In the other groups, 7 experiments are always processed. Before each measurement of pressure-volume ratios in the left ventricle the system was switched to the right heart bypass model in which the venous flow is diverted into the extra corporal circulation via the caval veins and the blood is returned to the sheep via the pulmonary artery.

[2] = target: cloned human μ opioid receptor (Homo sapiens, UniProt P35372); experiment: Radioligand binding, competition with [3H]DAMGO; settings: read-out: Agonist receptor binding (pIC50) mu (converted)
cloned human μ opioid receptor, sequence (P35372 whole entry): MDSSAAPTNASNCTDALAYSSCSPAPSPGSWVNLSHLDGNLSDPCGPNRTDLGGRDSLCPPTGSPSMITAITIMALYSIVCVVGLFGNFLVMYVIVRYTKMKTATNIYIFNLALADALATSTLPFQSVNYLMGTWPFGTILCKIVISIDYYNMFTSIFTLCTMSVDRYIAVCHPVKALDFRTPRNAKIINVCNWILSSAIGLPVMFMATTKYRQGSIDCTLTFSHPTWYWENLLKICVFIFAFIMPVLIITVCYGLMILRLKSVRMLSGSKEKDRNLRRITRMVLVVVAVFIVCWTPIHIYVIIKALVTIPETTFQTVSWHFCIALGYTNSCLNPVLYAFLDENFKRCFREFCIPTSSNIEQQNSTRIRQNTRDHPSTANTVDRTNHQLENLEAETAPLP

| Structure (SMILES) | Recup: % recuperation in developed pressure at the end of reperfusion (rat heart) | EDP: Degree of normalisation of EDP during reperfusion (amount above baseline EDP) (rat heart) | IC: Ischemic contracture (rat heart) | Vfib: Number of ventricullar fibrillations during reperfusion (rat heart) | melting point [°C] | other results |
| --- | --- | --- | --- | --- | --- | --- |
| CCOC(=O)N1CCC(c2ccccc2)(c2nccn2Cc2ccccc2)CC1 [Compound 1, ethyl 4-phenyl-4-[1-(phenylmethyl)-1H-imidazol-2-yl]-1-piperidinecarboxylate] | 92% and 85% and 82% | 0 mmHg and +7 mmHg and +8 mmHg | 4 mmHg and 6 mmHg and 8 mmHg | 0 (2×) and 1 (short) | – | Tau (ventricular relaxation) ([1]; compared to control group 70 and 100 minutes after end of ischaemia): significantly lower; Preload recruitable stroke work (PRSW) ([1]; compared to control group after 70 and 100 minutes of reperfusion): significantly better; Cardiac flow after reperfusion ([1]; compared to control group, no significant difference): tendency for cardiac flow to be higher; Contractile efficacy (O2-consumption converted into PVA) ([1]; control group 32.8%, ischaemic preconditioning group 44.5%, p<0.001): 46.7% |
| CCOC(=O)N1CCC(c2ccccc2)(c2nccn2Cc2ccc(C(=O)OC)cc2)CC1 [Compound 3] | – | – | – | – | 149.1 | – |
| CC(C)OC(=O)N1CCC(c2ccccc2)(c2nccn2Cc2ccccc2)CC1 [Compound 25] | 79% and 85% and 75% | +6 mmHg (2×) and +10 mmHg | 5 mmHg and 7 mmHg (2×) | 0 and 1 (short) and 2 (short) | – | – |
| O=C(c1ccccc1)N1CCC(c2ccccc2)(c2nccn2Cc2ccccc2)CC1 [Compound 2] | – | – | – | – | 122.7 | – |
| COC(=O)c1ccc(Cn2ccnc2C2(c3ccccc3)CCN(c3nc4ccccc4o3)CC2)cc1 [Compound 102] | – | – | – | – | – | IC50 [2]: > 1000 nM |
| CCOC(=O)N1CCC(c2ccccc2)(c2nccn2Cc2ccc(C(=O)O)cc2)CC1 [Compound 8] | – | – | – | – | 251.6 | – |
| CCN/C(=N/C#N)N1CCC(c2ccccc2)(c2nccn2Cc2ccccc2)CC1 [Compound 4] | – | – | – | – | 84.2 | – |
| CCCOC(=O)N1CCC(c2ccccc2)(c2nccn2Cc2ccccc2)CC1 [Compound 24] | 91% and 85% and 87% | 0 mmHg and +5 mmHg and +7 mmHg | 10 mmHg and 5 mmHg and 7 mmHg | 0 (2×) and 1 (short) | – | – |
